Among the data in patent publication US12492193B2, “Pyrazole derivatives for the treatment of cystic fibrosis” (Fondazione Istituto Italiano Di Tecnologia, priority 2017, dated 2025) are EC50 values, retold here.

T1 sequence (P13569 with tags, fused parts or gaps DEL508-508): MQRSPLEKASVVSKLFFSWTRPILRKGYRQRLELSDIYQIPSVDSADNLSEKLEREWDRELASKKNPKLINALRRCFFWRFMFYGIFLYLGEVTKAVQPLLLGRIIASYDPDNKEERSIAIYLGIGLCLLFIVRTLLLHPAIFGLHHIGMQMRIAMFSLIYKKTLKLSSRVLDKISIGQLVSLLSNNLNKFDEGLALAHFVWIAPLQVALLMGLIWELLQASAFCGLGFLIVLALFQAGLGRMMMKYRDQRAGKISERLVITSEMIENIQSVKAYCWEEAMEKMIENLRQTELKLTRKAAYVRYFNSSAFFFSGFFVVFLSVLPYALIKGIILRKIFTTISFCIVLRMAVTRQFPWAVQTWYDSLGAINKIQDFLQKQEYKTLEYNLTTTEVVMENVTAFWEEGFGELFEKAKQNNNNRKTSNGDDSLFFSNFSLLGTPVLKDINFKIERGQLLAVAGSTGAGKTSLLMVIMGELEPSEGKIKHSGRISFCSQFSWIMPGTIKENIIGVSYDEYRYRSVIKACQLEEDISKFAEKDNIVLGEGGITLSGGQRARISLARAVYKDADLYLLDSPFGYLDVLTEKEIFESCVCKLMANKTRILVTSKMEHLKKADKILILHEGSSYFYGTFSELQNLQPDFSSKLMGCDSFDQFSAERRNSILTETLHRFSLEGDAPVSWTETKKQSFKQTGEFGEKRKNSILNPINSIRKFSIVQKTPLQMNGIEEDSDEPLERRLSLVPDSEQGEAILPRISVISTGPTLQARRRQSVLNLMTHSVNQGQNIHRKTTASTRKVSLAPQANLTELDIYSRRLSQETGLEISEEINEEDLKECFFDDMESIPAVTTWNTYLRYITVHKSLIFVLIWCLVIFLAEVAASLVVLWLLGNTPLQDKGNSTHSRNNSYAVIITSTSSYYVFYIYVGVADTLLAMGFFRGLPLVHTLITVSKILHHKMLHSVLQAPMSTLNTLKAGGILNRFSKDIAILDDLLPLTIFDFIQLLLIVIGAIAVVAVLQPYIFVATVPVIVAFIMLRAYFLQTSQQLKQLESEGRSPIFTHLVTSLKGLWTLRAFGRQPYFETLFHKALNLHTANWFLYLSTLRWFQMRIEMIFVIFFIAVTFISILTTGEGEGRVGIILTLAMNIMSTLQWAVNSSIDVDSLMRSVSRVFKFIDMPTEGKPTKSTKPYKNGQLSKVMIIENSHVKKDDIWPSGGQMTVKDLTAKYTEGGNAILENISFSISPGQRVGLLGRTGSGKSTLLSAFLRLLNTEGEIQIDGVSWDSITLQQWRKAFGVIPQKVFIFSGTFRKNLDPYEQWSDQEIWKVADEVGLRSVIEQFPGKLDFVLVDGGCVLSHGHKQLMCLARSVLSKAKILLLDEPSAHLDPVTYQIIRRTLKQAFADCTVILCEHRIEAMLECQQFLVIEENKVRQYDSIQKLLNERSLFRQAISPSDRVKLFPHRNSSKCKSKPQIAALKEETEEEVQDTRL

The test has as its target T1, mutant CFTR (Homo sapiens, UniProt P13569, DEL508-508).
T1 construct: expressed in transfected cells
Nature of the test: Fluorescence (HS-YFP) assay for CFTR activity, corrector assay. Format: cell-based. To be noted: CFBE41o- and FRT cells with stable expression of mutant CFTR, 24 h compound treatment. In outline: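 CFBE41o- or FRT cells stably expressing mutant CFTR and HS-YFP were exposed to compounds for 24 h (corrector mode), then stimulated 30 min at 37° C with forskolin (20 μM) plus genistein (50 μM). YFP quenching after 100 mM iodide injection; initial slope from exponential fit of final 10 s; EC50 reported.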
Turning to `COC(=O)c1ccc(COc2cc(C(F)(F)F)nn2-c2cccc(C(=O)N(C)c3ccc4c(c3)OCO4)c2)cc1` [compound 152, Methyl-4-[[2-[3-[1,3-benzodioxol-5-yl(methyl)carbamoyl]phenyl]-5-(trifluoromethyl)pyrazol-3-yl]oxymethyl]benzoate], the EC50 was < 1000 nM.
In the case of `Cc1nc2cc(F)c(N(C)C(=O)c3cccc(-n4nc(C(F)(F)F)c(Cl)c4C)c3)cc2o1` [compound 154, 3-[4-Chloro-5-methyl-3-(trifluoromethyl)pyrazol-1-yl]-N-(5-fluoro-2-methyl-1,3-benzoxazol-6-yl)-N-methyl-benzamide] it was < 1000 nM.
Take `COC(=O)c1ccc(COc2c(Cl)c(C(F)(F)F)nn2-c2cccc(C(=O)N(C)c3ccc4c(c3)OCO4)c2)cc1` [compound 155, Methyl 4-[[2-[3-[1,3-benzodioxol-5-yl(methyl)carbamoyl]phenyl]-4-chloro-5-(trifluoromethyl)pyrazol-3-yl]oxymethyl]benzoate]: the EC50 is < 1000 nM.
In the case of `COC(=O)c1ccc(COc2c(Cl)c(C(F)(F)F)nn2-c2cccc(C(=O)N(C)c3cc4c(cc3Cl)OCO4)c2)cc1` [compound 156, Methyl 4-[[4-chloro-2-[3-[(6-chloro-1,3-benzodioxol-5-yl)-methyl-carbamoyl]phenyl]-5-(trifluoromethyl)pyrazol-3-yl]oxymethyl]benzoate] it was < 1000 nM.
Under `CN(C(=O)c1cccc(-n2nc(C(F)(F)F)c(Cl)c2OC2CCN(C(=O)OC(C)(C)C)CC2)c1)c1ccc2c(c1)OCO2` [compound 157, Tert-butyl 4-[2-[3-[1,3-benzodioxol-5-yl(methyl)carbamoyl]phenyl]-4-chloro-5-(trifluoromethyl)pyrazol-3-yl]oxypiperidine-1-carboxylate] stands < 1000 nM; under `CCOc1cc(C(F)(F)F)nn1-c1cccc(C(=O)N(C)c2ccc3c(c2)OCO3)c1` [compound 158, N-(1,3-benzodioxol-5-yl)-3-[5-ethoxy-3-(trifluoromethyl)pyrazol-1-yl]-N-methyl-benzamide], < 1000 nM.
In the case of `CN(C(=O)c1cccc(-n2nc(C(F)(F)F)c(Cl)c2OCc2ccc(C(=O)O)cc2)c1)c1ccc2c(c1)OCO2` [compound 159, 4-[[2-[3-[1,3-Benzodioxol-5-yl(methyl)carbamoyl]phenyl]-4-chloro-5-(trifluoromethyl)pyrazol-3-yl]oxymethyl]benzoic acid] it was < 1000 nM; in that of `Cc1c(Cl)c(C(F)(F)F)nn1-c1cccc(C(=O)N(C)c2cc3c(cc2C=O)OCO3)c1` [compound 161, 3-[4-chloro-5-methyl-3-(trifluoromethyl)pyrazol-1-yl]-N-(6-formyl-1,3-benzodioxol-5-yl)-N-methyl-benzamide], 1000 to 2000 nM; in that of `Cc1c(Cl)c(C(F)(F)F)nn1-c1cccc(C(=O)Nc2cc3c(cc2C#N)OCO3)c1` [compound 162, 3-[4-chloro-5-methyl-3-(trifluoromethyl)pyrazol-1-yl]-N-(6-cyano-1,3-benzodioxol-5-yl)benzamide], > 2000 nM.
For `Cc1c(Cl)c(C(F)(F)F)nn1-c1cccc(C(=O)N(C)c2cc3c(cc2C#N)OCO3)c1` [compound 163, 3-[4-chloro-5-methyl-3-(trifluoromethyl)pyrazol-1-yl]-N-(6-cyano-1,3-benzodioxol-5-yl)-N-methyl-benzamide], the EC50 is < 1000 nM.
Under `CN(C(=O)c1cccc(-n2nc(C(F)(F)F)cc2-c2ccc(Cl)s2)c1)c1ccc2c(c1)OCO2` [compound 164, N-(1,3-Benzodioxol-5-yl)-3-[5-(5-chloro-2-thienyl)-3-(trifluoromethyl)pyrazol-1-yl]-N-methyl-benzamide] stands < 1000 nM.
Under `O=C(Nc1ccc2c(c1)OCO2)c1cccc(-n2nc(C(F)(F)F)c(Cl)c2C2CC2)c1` [compound 165, N-(1,3-Benzodioxol-5-yl)-3-[4-chloro-5-cyclopropyl-3-(trifluoromethyl)pyrazol-1-yl]benzamide] stands > 2000 nM.
